From US10894807B2 (Siemens Medical Solutions USA, Inc., priority 2011, dated 2021)

Target: human PSMA (Homo sapiens (Human), UniProt Q04609)
Assay: Enzymatic assay for in vitro evaluation of PSMA inhibitors (fluorescent assay of PSMA activity, NAAG substrate, OPA detection of glutamate)
Format: biochemical

Chain of human PSMA (Q04609 whole entry): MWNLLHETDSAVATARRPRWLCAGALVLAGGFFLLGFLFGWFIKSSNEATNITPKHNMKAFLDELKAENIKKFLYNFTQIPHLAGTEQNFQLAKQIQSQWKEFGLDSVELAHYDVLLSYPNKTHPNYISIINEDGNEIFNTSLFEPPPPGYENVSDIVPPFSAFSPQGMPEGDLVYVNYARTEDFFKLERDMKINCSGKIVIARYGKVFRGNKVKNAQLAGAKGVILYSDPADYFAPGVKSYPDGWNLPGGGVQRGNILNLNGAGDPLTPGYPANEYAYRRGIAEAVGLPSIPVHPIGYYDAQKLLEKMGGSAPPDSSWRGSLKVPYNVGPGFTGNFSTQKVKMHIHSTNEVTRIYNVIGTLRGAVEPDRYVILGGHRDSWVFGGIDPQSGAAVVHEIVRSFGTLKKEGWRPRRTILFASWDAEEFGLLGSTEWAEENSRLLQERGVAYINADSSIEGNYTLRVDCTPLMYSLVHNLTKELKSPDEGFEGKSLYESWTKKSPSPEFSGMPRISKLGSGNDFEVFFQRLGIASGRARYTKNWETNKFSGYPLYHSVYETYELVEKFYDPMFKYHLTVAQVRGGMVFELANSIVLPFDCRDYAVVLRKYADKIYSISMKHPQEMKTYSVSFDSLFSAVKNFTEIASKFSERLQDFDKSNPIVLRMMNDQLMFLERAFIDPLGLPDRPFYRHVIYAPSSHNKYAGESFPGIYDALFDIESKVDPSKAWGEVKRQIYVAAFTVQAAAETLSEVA

SMILES | PSMA Blkg % (10 μM) [%] | Ki [nM] | PSMA Blkg % (1.0 μM) [%]
O=C(O)CC[C@H](NC(=O)C[C@@H](NC(=O)NCCc1ccccc1)C(=O)O)C(=O)O [P214, (S)-2-((R)-3-Carboxy-3-(3-phenethylureido)propanamido)pentanedioic Acid] | 34 |  | 
O=C(O)CC[C@H](NC(=O)N[C@@H](Cc1ccc(NC(=O)c2ccc(-n3cc(CCCF)nn3)cc2)cc1)C(=O)O)C(=O)O [P215, (S)-2-(3-((S)-1-Carboxy-2-(4-(4-(4-(3-fluoropropyl)-1H-1,2,3-triazol-1-yl)-benzamido)-phenyl)ethyl)ureido)pentanedioic Acid] | 99 | 2.2 | 
O=C(O)CC[C@H](NC(=O)N[C@@H](Cc1ccc(NC(=O)COCCOCCOCCn2cc(CCCF)nn2)cc1)C(=O)O)C(=O)O [P216] | 98 | 21.9 | 
O=C(O)CC[C@H](NC(=O)N[C@@H](Cc1ccc(NC(=O)Cn2cc(CCCF)nn2)cc1)C(=O)O)C(=O)O [P217, (S)-2-(3-((S)-1-Carboxy-2-(4-(4-(4-(3-fluoropropyl)-1H-1,2,3-triazol-1-yl)-acetamido)-phenyl)ethyl)ureido)pentanedioic Acid] | 96 | 31.3 | 
O=C(O)CC[C@H](NC(=O)N[C@@H](CCCCNc1nc(-c2ccc(-n3cc(CCCF)nn3)cc2)cs1)C(=O)O)C(=O)O [P218, (S)-2-(3-((S)-1-Carboxy-5-((4-(4-(4-(3-fluoropropyl)-1H-1,2,3-triazol-1-yl)phenyl)thiazol-2-yl)amino)pentyl)ureido)pentanedioic Acid] | 98 | 0.6 | 
O=C(O)CC[C@H](NC(=O)C[C@@H](NC(=O)CCCc1ccc(-n2cc(CCCF)nn2)cc1)C(=O)O)C(=O)O [P219, (S)-2-((R)-3-Carboxy-3-(4-(4-(4-(3-fluoropropyl)-1H-1,2,3-triazol-1-yl)phenyl)butanamido)-propanamido)pentanedioic Acid] | 74 |  | 
O=C(O)CC[C@H](NC(=O)C[C@@H](NC(=O)CCc1ccc(-n2cc(CCCF)nn2)cc1)C(=O)O)C(=O)O [P220, (S)-2-((R)-3-Carboxy-3-(3-(4-(4-(3-fluoropropyl)-1H-1,2,3-triazol-1-yl)phenyl)-propanamido)-propanamido)pentanedioic Acid] |  |  | 34
O=C(O)CC[C@H](NC(=O)C[C@@H](NC(=O)c1ccc(-n2cc(CCCF)nn2)cc1)C(=O)O)C(=O)O [P221, (S)-2-((R)-3-Carboxy-3-(4-(4-(3-fluoropropyl)-1H-1,2,3-triazol-1-yl)benzamido)propanamido)-pentanedioic Acid] |  |  | 15
O=C(O)CC[C@H](NC(=O)N[C@@H](Cc1ccc(NC(=O)N2CCN(C(=O)OCc3ccccc3)CC2)cc1)C(=O)O)C(=O)O [P222] |  | 0.56 | 98
O=C(O)CC[C@H](NC(=O)N[C@@H](Cc1ccc(NC(=O)Nc2ccc(C[C@H](NC(=O)N[C@@H](CCC(=O)O)C(=O)O)C(=O)O)cc2)cc1)C(=O)O)C(=O)O [P223, (2S,2′S)-2,2′-(((((1S,1′S)-((Carbonylbis(azanediyl))bis(4,1-phenylene))bis(1-carboxyethane-2,1-diyl))bis(azanediyl))bis(carbonyl))bis(azanediyl))dipentanedioic Acid] |  | 1.1 | 98
O=C(O)CC[C@H](NC(=O)N[C@@H](COC(=O)N1CCN(C(=O)OCc2ccccc2)CC1)C(=O)O)C(=O)O [P224, (S)-2-(3-((S)-2-((4-((Benzyloxy)carbonyl)piperazine-1-carbonyl)oxy)-1-carboxyethyl)ureido)pentanedioic Acid] |  |  | 65
O=C(O)CCC(CP(=O)(O)OCCC1CCN(C(=O)CCc2ccc(-n3cc(CCCF)nn3)cc2)CC1)C(=O)O (stereo not drawn) [P225, 2-(((2-(1-(3-(4-(4-(3-Fluoropropyl)-1H-1,2,3-triazol-1-yl)phenyl)propanoyl)piperidin-4-yl)ethoxy)(hydroxy)phosphoryl)methyl)pentanedioic Acid] |  |  | 7
O=C(O)CCC(CP(=O)(O)OCC1CCN(C(=O)CCCc2ccc(-n3cc(CCCF)nn3)cc2)CC1)C(=O)O (stereo not drawn) [P226, 2-((((1-(4-(4-(4-(3-Fluoropropyl)-1H-1,2,3-triazol-1-yl)phenyl)butanoyl)piperidin-4-yl)methoxy)(hydroxy)phosphoryl)methyl)pentanedioic Acid] |  |  | 32
O=C(O)CCC(CP(=O)(O)OCCC1CCN(C(=O)c2ccc(-n3cc(CCCF)nn3)cc2)CC1)C(=O)O (stereo not drawn) [P227, 2-(((2-(1-(4-(4-(3-Fluoropropyl)-1H-1,2,3-triazol-1-yl)benzoyl)piperidin-4-yl)ethoxy)(hydroxy)phosphoryl)methyl)pentanedioic Acid] |  |  | 15
O=C(O)CC[C@H](NC(=O)C[C@@H](NC(=O)Cn1cc(CCCF)nn1)C(=O)O)C(=O)O [P228, (S)-2-((R)-3-Carboxy-3-(2-(4-(3-fluoropropyl)-1H-1,2,3-triazol-1-yl)acetamido)propanamido)-pentanedioic Acid] |  |  | 24
O=C(O)CC[C@H](NC(=O)C[C@@H](NC(=O)N1CCN(C(=O)OCc2ccccc2)CC1)C(=O)O)C(=O)O [P229, (S)-2-((R)-3-(4-((Benzyloxy)carbonyl)piperazine-1-carboxamido)-3-carboxypropanamido)-pentanedioic Acid] |  |  | 25

SMILES | PSMA Blkg % (10 μM) [%] | Ki [nM] | PSMA Blkg % (1.0 μM) [%]
O=C(O)CC[C@H](NC(=O)NC(CC1CCN(C(=O)CCCc2ccc(-n3cc(CCCF)nn3)cc2)CC1)C(=O)O)C(=O)O (stereo partly drawn) [P230, (2S)-2-(3-(1-Carboxy-2-(1-(4-(4-(4-(3-fluoropropyl)-1H-1,2,3-triazol-1-yl)phenyl)butanoyl)-piperidin-4-yl)ethyl)ureido)pentanedioic Acid] |  | 13 | 95
O=C(O)CCC(C(=O)O)N1C(=O)N[C@@H](CC2CCN(C(=O)CCCc3ccc(-n4cc(CCCF)nn4)cc3)CC2)C1=O (stereo partly drawn) [P231] |  |  | 63
O=C(O)CC[C@H](NC(=O)N[C@@H](CCCCNc1nc(-c2ccc(F)cc2)cs1)C(=O)O)C(=O)O [P232, (S)-2-(3-((S)-1-Carboxy-5-(4-(4-fluorophenyl)thiazol-2-ylamino)pentyl)ureido)pentanedioic Acid] |  |  | 96
O=C(O)CC[C@H](NC(=O)N[C@@H](CCCCNc1nc(-c2cccc([N+](=O)[O-])c2)cs1)C(=O)O)C(=O)O [P233, (S)-2-(3-((S)-1-Carboxy-5-(4-(3-nitrophenyl)thiazol-2-ylamino)pentyl)ureido)pentanedioic Acid] |  |  | 96
O=C(O)CC[C@H](NC(=O)N[C@@H](CCCCNc1nc(-c2cc3ccccc3s2)cs1)C(=O)O)C(=O)O [P234, (S)-2-(3-((S)-5-(4-(Benzo[b]thiophen-2-yl)thiazol-2-ylamino)-1-carboxypentyl)ureido) pentanedioic Acid] |  |  | 86
O=C(O)CC[C@H](NC(=O)N[C@@H](CCCCNc1nc(-c2ccc3c(c2)OCO3)cs1)C(=O)O)C(=O)O [P235, (S)-2-(3-((S)-5-(4-(Benzo[d][1,3]dioxol-5-yl)thiazol-2-ylamino)-1-carboxypentyl)ureido)-pentanedioic Acid] |  | < 0.3 | 100
O=C(O)CC[C@H](NC(=O)N[C@@H](CCCCNc1nc(-c2ccnc(Cl)c2)cs1)C(=O)O)C(=O)O [P236, (S)-2-(3-((S)-1-Carboxy-5-(4-(2-chloropyridin-4-yl)thiazol-2-ylamino)pentyl)ureido)-pentanedioic Acid] |  |  | 99
O=C(O)CC[C@H](NC(=O)N[C@@H](Cc1ccc(NC(=O)N2CCN(C(=O)Cn3cc(CCCF)nn3)CC2)cc1)C(=O)O)C(=O)O [P237, (S)-2-(3-((S)-1-Carboxy-2-(4-(4-(2-(4-(3-fluoropropyl)-1H-1,2,3-triazol-1-yl)acetyl)piperazine-1-carboxamido)phenyl)ethyl)ureido)pentanedioic Acid] |  | 3.8 | 100
O=C(O)CC[C@H](NC(=O)N[C@@H](Cc1ccc(NC(=O)c2cc(C(=O)Nc3ccc(C[C@H](NC(=O)N[C@@H](CCC(=O)O)C(=O)O)C(=O)O)cc3)cc(-n3cc(CCCF)nn3)c2)cc1)C(=O)O)C(=O)O [P238, (2S,2′S)-2,2′-(((((1S,1′S)-(((5-(4-(3-Fluoropropyl)-1H-1,2,3-triazol-1-yl)isophthaloyl)bis(azanediyl))bis(4,1-phenylene))bis(1-carboxyethane-2,1-diyl))bis(azanediyl))bis(carbonyl))bis(azanediyl))dipentanedioic Acid] |  | < 0.3 | 100
O=C(O)CC[C@H](NC(=O)C[C@@H](NC(=O)CCNC(=O)OCc1ccccc1)C(=O)O)C(=O)O [P239, (9R,13S)-3,7,11-Trioxo-1-phenyl-2-oxa-4,8,12-triazapentadecane-9,13,15-tricarboxylic Acid] |  |  | 33
O=C(O)CC[C@H](NC(=O)N[C@@H](Cc1ccc(Nc2nc(-c3ccc(-n4cc(CCCF)nn4)cc3)cs2)cc1)C(=O)O)C(=O)O [P240] |  | 28 | 94
O=C(O)CC[C@H](NC(=O)N[C@@H](Cc1ccc(NC(=O)c2ccc(F)cc2)cc1)C(=O)O)C(=O)O [P241] |  | 0.38 | 94
O=C(O)CC[C@H](NC(=O)N[C@@H](CCCCNc1cc(OCc2cn(CCF)nn2)ccc1[N+](=O)[O-])C(=O)O)C(=O)O [P242, (S)-2-(3-((S)-1-Carboxy-5-((5-((1-(2-fluoroethyl)-1H-1,2,3-triazol-4-yl)methoxy)-2-nitrophenyl)amino)pentyl)ureido)pentanedioic Acid] |  | 0.07 | 99
O=C(O)CC[C@H](NC(=O)C[C@@H](NC(=O)CCNC(=O)Cn1cc(CCCF)nn1)C(=O)O)C(=O)O [P243, (S)-2-((R)-3-Carboxy-3-(3-(2-(4-(3-fluoropropyl)-1H-1,2,3-triazol-1-yl)acetamido)propanamido)-propanamido)pentanedioic Acid] |  |  | 5
O=C(O)CC[C@H](NC(=O)N[C@@H](CCCCNc1nc(-c2cccc(NC(=O)Cn3cc(CCCF)nn3)c2)cs1)C(=O)O)C(=O)O [P244, (S)-2-(3-((S)-1-Carboxy-5-(4-(3-(2-(4-(3-fluoropropyl)-1H-1,2,3-triazol-1-yl)acetamido)phenyl)thiazol-2-ylamino)pentyl)ureido)pentanedioic Acid] |  | 0.38 | 98
